Consider 70 compounds from US8674096B2, “Substituted imidazo[1,5-a]quinoxalin-4-ones as phosphodiesterase 9 inhibitors” (priority 2009, dated 2014).

One may read the melting point as the temperature, or range, at which the solid turns liquid.

Consider `O=C(c1ccc2c(c1)[nH]c(=O)c1nnc(C3CCOCC3)n12)N1Cc2ccccc2C1`, for which the melting point was 303 °C (dec.).

For the compound `Cc1cc2c(cc1C(=O)N1CCc3ccccc31)[nH]c(=O)c1cnc(C3CCOCC3)n12.Cl`, the melting point lay within 216 to 219 °C. With `Cc1ccc2c(c1)CN(C(=O)c1cc3[nH]c(=O)c4cnc(C5CCOCC5)n4c3cc1C)C2` the figure was 203 to 205 °C; with `Cc1cc2c(cc1C(=O)N1CCc3cccnc31)[nH]c(=O)c1cnc(C3CCOCC3)n12`, 341 °C (dec.); with `Cc1cc2c(cc1C(=O)N1Cc3cccc(Cl)c3C1)[nH]c(=O)c1cnc(C3CCOCC3)n12.Cl`, 198 to 200 °C.

As for `CCCc1nnc2c(=O)[nH]c3cc(C(=O)N4CCc5c(Cl)cccc5C4)c(C)cc3n12`, the melting point fell in the range of 198 to 202 °C. With `Cc1cc2c(cc1C(=O)N1Cc3c(F)ccc(F)c3C1)[nH]c(=O)c1cnc(C3CCOCC3)n12.Cl` the figure was 199 to 201 °C (dec.); with `Cc1cc2c(cc1C(=O)N1Cc3cccc(C#N)c3C1)[nH]c(=O)c1cnc(C3CCOCC3)n12.Cl`, 328 °C (dec.).

Regarding `COc1cccc2c1CN(C(=O)c1cc3[nH]c(=O)c4cnc(C5CCOCC5)n4c3cc1C)C2.Cl`, the melting point was 209 °C (dec.). As for `Cc1cc2c(cc1C(=O)N1Cc3cccc(C4CC4)c3C1)[nH]c(=O)c1cnc(C3CCOCC3)n12.Cl`, the figure is 286 °C (dec.); as for `Cc1cc2c(cc1C(=O)N1Cc3cccc(I)c3C1)[nH]c(=O)c1cnc(C3CCOCC3)n12.Cl`, 313 °C (dec.); as for `Cc1cc2c(cc1C(=O)N1CCc3ccc(Cl)cc31)[nH]c(=O)c1cnc(C3CCOCC3)n12.Cl`, 188 to 189 °C. `COc1cc2c(cn1)N(C(=O)c1cc3[nH]c(=O)c4cnc(C5CCOCC5)n4c3cc1C)CC2`: the melting point fell in the range of 232 to 233 °C. For the compound `Cc1cc2c(cc1C(=O)N1CCc3cnn(C)c3C1)[nH]c(=O)c1cnc(C3CCOCC3)n12`, the melting point was 192 to 194 °C (dec.). With `Cc1cc2c(cc1C(=O)N1CCc3c(Cl)cccc31)[nH]c(=O)c1cnc(C3CCOCC3)n12.Cl` the figure was 272 to 273 °C; with `Cc1cc2c(cc1C(=O)N1CCc3cc(F)c(Cl)cc31)[nH]c(=O)c1cnc(C3CCOCC3)n12.Cl`, 315 °C (dec.); with `Cc1cc2c(cc1C(=O)N1Cc3ccc(Cl)cc3C1)[nH]c(=O)c1cnc(C3CCCOC3)n12.Cl` (stereo not shown), 200 to 203 °C. In turn, `Cc1ccc2c(c1)CCN2C(=O)c1cc2[nH]c(=O)c3cnc(C4CCCOC4)n3c2cc1C.Cl` (stereo not shown) yielded a melting point of 204 to 206 °C. For the compound `Cc1ccc2c(c1)CCN2C(=O)c1cc2[nH]c(=O)c3cnc(C4CCOC4)n3c2cc1C.Cl` (stereo not shown), the melting point was 186 to 188 °C (dec.). As for `Cc1cc2c(cc1C(=O)N1Cc3ccc(Cl)cc3C1)[nH]c(=O)c1cnc(C3CCOC3)n12.Cl` (stereo not shown), the figure is 185 to 187 °C. With `Cc1cc2c(cc1C(=O)N1Cc3cccc(C)c3C1)[nH]c(=O)c1cnc(C3CCOC3)n12.Cl` (stereo not shown) the figure was 270 to 272 °C (dec.); with `Cc1cnc2c(c1)CCN2C(=O)c1cc2[nH]c(=O)c3cnc(C4CCOCC4)n3c2cc1C`, 313 to 315 °C. With `Cc1cc2c(cc1C(=O)N1Cc3cccc(C)c3C1)[nH]c(=O)c1nnc(C3CCOC3)n12.Cl` (stereo not shown) the figure was 311 °C (dec.); with `Cc1cc2c(cc1C(=O)N1CCc3onc(-c4ccc(F)cc4)c3C1)[nH]c(=O)c1nnc(C3CCOC3)n12` (stereo not shown), 282 to 284 °C (dec.); with `COc1cc2c(cc1C(=O)N1CCc3cc(Cl)ccc31)[nH]c(=O)c1cnc(C3CCOCC3)n12.Cl`, 328 to 330 °C (dec.). Regarding `Cc1cc2c(cc1C(=O)N1Cc3cccc(F)c3C1)[nH]c(=O)c1cnc(C3CCOC3)n12.Cl` (stereo not shown), the melting point lay in the range of 203 to 205 °C. Regarding `Cc1cc2c(cc1C(=O)N1Cc3ccccc3C1)[nH]c(=O)c1nnc(C3(C)CCOCC3)n12`, the melting point is 232 °C (dec.). With `Cl.O=C(c1cc2[nH]c(=O)c3cnc(C4CCOCC4)n3c2cc1Cl)N1CCc2cc(Cl)ccc21` the figure was 352 °C (dec.). As for `COc1cc2c(cn1)N(C(=O)c1cc3[nH]c(=O)c4nnc(C5CCCC5)n4c3cc1C)CC2`, the figure is 263 to 265 °C. Consider `Cc1cc2c(cc1C(=O)N1CCN(C)C(c3ccccc3)C1)[nH]c(=O)c1cnc(C3CCOCC3)n12` (stereo not shown), for which the melting point lay in the range of 189 to 192 °C.

As to `Cl.O=C(c1cc2[nH]c(=O)c3cnc(C4CCOCC4)n3c2cc1C1CC1)N1Cc2ccc(Cl)cc2C1`, the melting point was 199 to 203 °C (dec.). As for `COc1cc2c(cc1C(=O)N1Cc3ccc(Cl)cc3C1)[nH]c(=O)c1cnc(C3CCOCC3)n12.Cl`, the figure is 210 to 213 °C (dec.). `Cc1cc2c(cc1C(=O)N1CCc3cc(Cl)ccc31)[nH]c(=O)c1nnc(C3CCC(F)(F)CC3)n12` returned a melting point of 230 to 233 °C. As for `COc1cc2c(cn1)N(C(=O)c1cc3[nH]c(=O)c4cnc(C5CCOCC5)n4c3cc1C1CC1)CC2`, the figure is 241 °C (dec.). As for `Cc1cc2c(cc1C(=O)N1Cc3cccc(F)c3C1)[nH]c(=O)c1cnc(C3CCOCC3)n12.Cl`, the figure is 201 to 203 °C; as for `Cl.O=C(c1cc2[nH]c(=O)c3cnc(C4CCOCC4)n3c2cc1Cl)N1Cc2ccccc2C1`, 332 °C (dec.). With `Cc1cc2c(cc1C(=O)N1CCc3cc(F)ccc31)[nH]c(=O)c1nnc(C3CCCOC3)n12.Cl` (stereo not shown) the figure was 235 to 237 °C; with `Cc1cc2c(cc1C(=O)N1Cc3ccccc3C1)[nH]c(=O)c1nnc(C3CCOC3)n12.Cl` (stereo not shown), 223 to 224 °C. Compound `Cc1cc2c(cc1C(=O)N1CCc3ncccc3C1)[nH]c(=O)c1cnc(C3CCOCC3)n12` displayed a melting point of 236 to 239 °C. Regarding `Cc1cc2c(cc1C(=O)N1Cc3ccccc3C1)[nH]c(=O)c1nnc(C3CCCOC3)n12.Cl` (stereo not shown), the melting point is 303 °C (dec.). On to `O=C(c1cc2[nH]c(=O)c3nnc(C4CCOCC4)n3c2cc1Br)N1Cc2ccccc2C1`, for which the melting point was 350 °C (dec.). With `Cc1cc2c(cc1C(=O)N1CCc3cc(F)ccc31)[nH]c(=O)c1c(C)nc(C3CCOCC3)n12` the figure was 177 to 180 °C; with `Cc1cc2c(cc1C(=O)N1CCc3cccnc31)[nH]c(=O)c1c(C)nc(C3CCOCC3)n12`, 192 °C (dec.); with `COCc1cc2c(cc1C(=O)N1CCc3cc(F)ccc31)[nH]c(=O)c1cnc(C3CCOCC3)n12.Cl`, 301 to 304 °C (dec.). On to `COCc1cc2c(cc1C(=O)N1Cc3ccccc3C1)[nH]c(=O)c1cnc(C3CCOCC3)n12.Cl`, for which the melting point is 261 to 264 °C (dec.).

On to `Cc1c(C(=O)N2Cc3ccccc3C2)ccc2c1[nH]c(=O)c1cnc(C3CCOCC3)n12.Cl`, for which the melting point lay in the range of 183 to 186 °C.

For the compound `Cc1cc2c(cc1C(=O)N1CCc3cc(C4CC4)cnc31)[nH]c(=O)c1nnc(C3CCOCC3)n12`, the melting point lay in the range of 210 to 212 °C. With `Cc1cc2c(cc1C(=O)N1CCc3cc(C4CC4)cnc31)[nH]c(=O)c1nnc(C3CCCOC3)n12` (stereo not shown) the figure was 204 to 206 °C; with `Cc1cc2c(cc1C(=O)N1CCc3cc(Cl)ccc31)[nH]c(=O)c1nnc(C3CCC3)n12.Cl`, 225 to 228 °C. As for `Cc1cc2c(cc1C(=O)N1CCc3cc(F)ccc31)[nH]c(=O)c1nnc(C3CCC3)n12.Cl`, the figure is 223 to 226 °C. As for `Cc1cc2c(cc1C(=O)N1CCc3cc(Cl)ccc31)[nH]c(=O)c1nnc(C3(C)CCOCC3)n12.Cl`, the melting point lay within 229 to 232 °C. In the case of `COCc1cc2c(cc1C(=O)N1Cc3cccc(F)c3C1)[nH]c(=O)c1cnc(C3CCOCC3)n12.Cl`, the melting point is 277 °C (dec.). `Cc1cc2c(cc1C(=O)N1CCc3cc(F)ccc31)[nH]c(=O)c1cnc([C@H]3CC[C@H](O)CC3)n12.Cl` gave a melting point of 199 to 201 °C.

For the compound `Cc1cc2c(cc1C(=O)N1CCc3cc(Br)cnc31)[nH]c(=O)c1cnc([C@H]3CC[C@@H](O)CC3)n12.Cl`, the melting point lay in the range of 305 to 307 °C.

For the compound `Cc1cc2c(cc1C(=O)N1Cc3ccccc3C1)[nH]c(=O)c1nnc(-c3ccccc3)n12`, the melting point is 316 °C (dec.). With `Cc1c(C(=O)N2CCc3cccnc32)ccc2c1[nH]c(=O)c1cnc(C3CCOCC3)n12.Cl` the figure was 320 °C (dec.); with `CC(C)c1ncc2c(=O)[nH]c3cc(C(=O)N4CCOC(c5ccccc5)C4)ccc3n12.Cl` (stereo not shown), 268 to 271 °C; with `CC(C)c1ncc2c(=O)[nH]c3cc(C(=O)N4CCc5c(Cl)cccc5C4)ccc3n12.Cl`, 328 to 329 °C. With `Cc1cc2c(cc1C(=O)N1CCc3cc(F)ccc31)[nH]c(=O)c1nnc(C3CCOCC3)n12.Cl` the figure was 221 to 223 °C; with `COCc1cc2c(cc1C(=O)N1CCc3cc(Cl)ccc31)[nH]c(=O)c1nnc(C3(C)CCOCC3)n12.Cl`, 198 to 201 °C; with `Cc1ccc2c(c1)CCN2C(=O)c1cc2[nH]c(=O)c3cnc(C4CCOCC4)n3c2cc1C.Cl`, 282 to 284 °C. With `Cc1cc2c(cc1C(=O)N1CCc3ccc([N+](=O)[O-])cc31)[nH]c(=O)c1cnc(C3CCOCC3)n12.Cl` the figure was 301 to 304 °C; with `Cc1cc2c(cc1C(=O)N1Cc3ccccc3C1)[nH]c(=O)c1nnc(CC3CCS(=O)(=O)CC3)n12.Cl`, 253 °C (dec.); with `Cc1cc2c(cc1C(=O)N1Cc3ccccc3C1)[nH]c(=O)c1cnc(C3CCOC3)n12.Cl` (stereo not shown), 270 °C (dec.). Turning to `Cc1cc2c(cc1C(=O)N1Cc3ccccc3C1)[nH]c(=O)c1nnc(CC3CC[S+]([O-])CC3)n12` (stereo not shown), the melting point was 248 °C (dec.). For `Cc1cc2c(cc1C(=O)N1Cc3ccccc3C1)[nH]c(=O)c1nnc(C3CCCC3)n12`, the melting point was 318 °C (dec.).

Consider `Cc1cc2c(cc1C(=O)N1Cc3cccc(Cl)c3C1)[nH]c(=O)c1nnc(C3CCOCC3)n12`, for which the melting point is 329 °C (dec.). Compound `Cc1cc2c(cc1C(=O)N1CCOC(c3ccccc3)C1)[nH]c(=O)c1cnc(C3CCCC3)n12` (stereo not shown) had a melting point of 304 to 305 °C. With `Cc1cc2c(cc1C(=O)N1CCN(C)C(c3ccccc3)C1)[nH]c(=O)c1cnc(C3CCCC3)n12` (stereo not shown) the figure was 246 to 248 °C; with `Cc1cc2c(cc1C(=O)N1Cc3ccccc3C1)[nH]c(=O)c1cnc(C3CCCC3)n12`, 304 °C (dec.).
